Values quoted from earlier work, collected in US20200237789A1, “COMBINATION THERAPY FOR PREVENTING ADDICTION” (Amygdala Neurosciences, Inc., priority 2017, published 2020).

Assays:
hMAO-A = target: T1, hMAO-A (Homo sapiens, UniProt P21397); details: read-out: IC50 hMAO-A
T1 sequence (P21397 1-527): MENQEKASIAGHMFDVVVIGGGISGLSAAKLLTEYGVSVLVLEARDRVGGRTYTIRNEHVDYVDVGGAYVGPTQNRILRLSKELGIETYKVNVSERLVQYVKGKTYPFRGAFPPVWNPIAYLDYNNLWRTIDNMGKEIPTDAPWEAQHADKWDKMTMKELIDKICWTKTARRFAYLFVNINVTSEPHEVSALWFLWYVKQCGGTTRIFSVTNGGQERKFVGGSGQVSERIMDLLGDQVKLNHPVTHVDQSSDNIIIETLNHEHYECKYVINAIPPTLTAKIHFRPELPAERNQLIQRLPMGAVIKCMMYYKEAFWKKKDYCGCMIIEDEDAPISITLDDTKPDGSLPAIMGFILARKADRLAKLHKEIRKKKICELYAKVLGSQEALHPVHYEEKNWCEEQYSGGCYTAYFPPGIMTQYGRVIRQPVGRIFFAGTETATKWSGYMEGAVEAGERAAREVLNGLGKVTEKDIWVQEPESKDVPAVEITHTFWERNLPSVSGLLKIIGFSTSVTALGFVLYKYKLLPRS

hMAO-B = target: T2, hMAO-B (Homo sapiens, UniProt P27338); details: read-out: IC50 hMAO-B
T2 sequence (P27338 1-520): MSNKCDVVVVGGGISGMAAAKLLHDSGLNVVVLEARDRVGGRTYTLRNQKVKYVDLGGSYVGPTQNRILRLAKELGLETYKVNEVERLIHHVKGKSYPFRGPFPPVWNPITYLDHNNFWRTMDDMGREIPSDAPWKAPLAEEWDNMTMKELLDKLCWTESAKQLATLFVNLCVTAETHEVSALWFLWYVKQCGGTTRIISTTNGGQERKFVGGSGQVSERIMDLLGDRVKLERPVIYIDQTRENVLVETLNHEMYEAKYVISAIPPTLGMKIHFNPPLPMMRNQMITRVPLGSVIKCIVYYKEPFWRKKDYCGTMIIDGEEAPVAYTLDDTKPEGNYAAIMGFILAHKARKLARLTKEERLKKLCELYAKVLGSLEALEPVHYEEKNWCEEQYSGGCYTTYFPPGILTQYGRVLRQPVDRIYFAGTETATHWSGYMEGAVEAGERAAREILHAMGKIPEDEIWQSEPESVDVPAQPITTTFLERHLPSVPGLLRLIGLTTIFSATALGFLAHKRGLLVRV

human ALDH-2 enzyme = target: T3, human ALDH-2 enzyme (Homo sapiens, UniProt P05091); details: read-out: IC50 ALDH-2
T3 sequence (P05091 18-517): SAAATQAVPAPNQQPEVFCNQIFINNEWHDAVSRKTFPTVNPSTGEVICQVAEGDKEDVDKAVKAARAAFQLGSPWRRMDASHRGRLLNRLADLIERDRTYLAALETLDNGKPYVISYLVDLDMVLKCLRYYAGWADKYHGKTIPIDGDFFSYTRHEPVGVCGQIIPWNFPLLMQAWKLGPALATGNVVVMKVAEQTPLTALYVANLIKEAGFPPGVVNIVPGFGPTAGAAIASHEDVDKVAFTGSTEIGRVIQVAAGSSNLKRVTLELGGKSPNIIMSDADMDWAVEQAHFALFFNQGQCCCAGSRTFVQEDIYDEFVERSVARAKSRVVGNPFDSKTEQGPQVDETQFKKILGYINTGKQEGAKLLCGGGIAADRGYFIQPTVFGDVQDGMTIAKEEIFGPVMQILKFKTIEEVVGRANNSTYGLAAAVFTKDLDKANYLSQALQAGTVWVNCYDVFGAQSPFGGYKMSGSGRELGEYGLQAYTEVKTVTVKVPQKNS

| SMILES | IC50 (hMAO-A) | IC50 (hMAO-B) | IC50 (human ALDH-2 enzyme) |
| --- | --- | --- | --- |
| O=C(NCc1ccc(-c2cc[nH]c(=O)c2)cc1)c1cccc(F)c1Cl [(4), 2-chloro-3-fluoro-N-(4-(2-oxo-1,2-dihydropyridin-4-yl)benzyl)benzamide] | > 130 µM | > 130 µM |  |
| O=C(NCc1ccc(-c2ccn(COP(=O)(O)O)c(=O)c2)cc1)c1c(Cl)cccc1Cl [compound (2), phosphoric acid mono-(4-{4-[(2,6-dichloro-benzoylamino)-methyl]-phenyl}-2-oxo-2H-pyridin-1-ylmethyl) ester] | > 130 µM | > 130 µM | > 10 µM |
| O=C(NCc1ccc(-c2cc[nH]c(=O)c2)cc1)c1c(F)cccc1F [(11), 2,6-difluoro-N-(4-(2-oxo-1,2-dihydropyridin-4-yl)benzyl)benzamide] | > 130 µM | > 130 µM |  |
| Cc1cccc(C)c1C(=O)NCc1ccc(-c2cc[nH]c(=O)c2)cc1 [(6), 2,6-dimethyl-N-(4-(2-oxo-1,2-dihydropyridin-4-yl)benzyl)benzamide] | > 130 µM | > 130 µM |  |
| O=C(NCc1ccc(-c2cc[nH]c(=O)c2)cc1)c1c(F)ccc(F)c1Cl [(8), 2-chloro-3,6-difluoro-N-(4-(2-oxo-1,2-dihydropyridin-4-yl)benzyl)benzamide] | > 130 µM | > 130 µM |  |
| COCCOc1cc(Cl)c(C(=O)NCc2ccc(-c3cc[nH]c(=O)c3)cc2)c(Cl)c1 [(3), 2,6-dichloro-4-(2-methoxyethoxy)-N-(4-(2-oxo-1,2-dihydropyridin-4-yl)benzyl)benzamide] | > 130 µM | > 130 µM |  |
| O=C(NCc1ccc(-c2cc[nH]c(=O)c2)cc1F)c1c(Cl)cccc1Cl [(13), 2,6-dichloro-N-(2-fluoro-4-(2-oxo-1,2-dihydropyridin-4-yl)benzyl)benzamide] | > 130 µM | > 130 µM |  |

Further lines, with some results ahead:

| IC50 (hMAO-A) | IC50 (hMAO-B) | SMILES | IC50 (human ALDH-2 enzyme) |
| --- | --- | --- | --- |
| > 130 µM | > 130 µM | Cc1cc(-c2ccc(CNC(=O)c3c(Cl)cccc3Cl)cc2)cc(=O)[nH]1 [(7), 2,6-dichloro-N-[4-(6-methyl-2-oxo-1,2-dihydro-pyridin-4-yl)-benzyl]-benzamide] |  |
| > 130 µM | > 130 µM | Cc1cc(CNC(=O)c2c(Cl)cccc2Cl)ccc1-c1cc[nH]c(=O)c1 [(9), 2,6-dichloro-N-(3-methyl-4-(2-oxo-1,2-dihydropyridin-4-yl)benzyl)benzamide] |  |
| > 130 µM | > 130 µM | O=C(NCc1ccc(-c2cc[nH]c(=O)c2)cc1)c1c(F)cccc1Cl [(12), 2-chloro-6-fluoro-N-(4-(2-oxo-1,2-dihydropyridin-4-yl)benzyl)benzamide] |  |
| > 130 µM | > 130 µM | O=C(NCc1ccc(-c2cc[nH]c(=O)c2)cc1)c1c(Cl)cccc1Cl [compound (1), 2,6-dichloro-N-[4-(2-oxo-1,2-dihydro-pyridin-4-yl)-benzyl]-benzamide] |  |
| > 130 µM | > 130 µM | Cc1cccc(Cl)c1C(=O)NCc1ccc(-c2cc[nH]c(=O)c2)cc1 [(5), 2-chloro-6-methyl-N-(4-(2-oxo-1,2-dihydropyridin-4-yl)benzyl)benzamide] |  |
| > 130 µM | > 130 µM | O=C(NCc1ccc(-c2cc(=O)[nH]cc2F)cc1)c1c(Cl)cccc1Cl [(14), 2,6-dichloro-N-(4-(5-fluoro-2-oxo-1,2-dihydropyridin-4-yl)benzyl)benzamide] |  |
| > 130 µM | > 130 µM | Cn1ccc(-c2ccc(CNC(=O)c3c(Cl)cccc3Cl)cc2)cc1=O [(10), 2,6-dichloro-N-(4-(1-methyl-2-oxo-1,2-dihydropyridin-4-yl)benzyl)benzamide] |  |
